Data from US10265374B2, “Occidiofungin formations and uses thereof” (MISSISSIPPI STATE UNIVERSITY, priority 2014, dated 2019).
Where two headings read alike, the source gives them in different places. One block for each compound: values may come before it. Starred links: 1 amine or outer side, 2 acyl side, 3 side chain; linkers in the order of their positions; H or OH if unused. Positions of bridges follow the written chain, without caps; N, C: chain ends. Non-standard residues stand in square brackets, D forms with d. Residues, ends and D or L forms follow the SMILES beside them. ξ: configuration not given here. X1 = CCCCCCCCCCCC(OC1OCC(O)C(O)C1O)C(O)C(O)CC(CC(=O)[*:1])N[*:2]; ξTyr(βOH) = NC(C(=O)O)C(O)c1ccc(O)cc1; ξAsn(3ξ-OH) = NC(=O)C(O)C(N)C(=O)O; Dab = NCC[CH](N)C(=O)O

Key:
[1] = Pharmacokinetics of occidiofungin in DOPC or DOPC:DPPG vesicles; format: in vivo, mice; settings: for half-life: female, BALB/c
Description: Entrapment of occidiofungin in vesicles was done using 1,2-Dioleoyl-sn-glycero-3-phosphocholine (DOPC) and 1,2-dipalmitoyl-sn-glycero-3-[phospho-rac-(3-lysyl(1-glycerol))] (DPPG) from Avanti polar lipids. Lipid cake formation and subsequent hydration was done according to the manufacturer's recommendation. Briefly, 20 mg/ml of DOPC in chloroform was placed in a glass beaker and dried by vacuum evaporation to remove the organic solvent. The lipid film formed was hydrated using a 1 μg/μl solution of occidiofungin in 1.5% (2-Hydroxypropyl)-β-cyclodextrin (Alfa Aesar), while maintaining the lipid concentration at 20 mg/ml and the solution was sonicated to form the vesicles. Similarly, DPPG was mixed with DOPC at a ratio of 9:1 (DOPC:DPPG) to make a homogenous lipid mixture at a concentration of 20 mg/ml and the same process of drying and hydration was repeated to make vesicles. Following vesicle formation, estimation of the amount of occidiofungin trapped inside each type of vesicle was done. The mixture containing free and vesicle trapped occidiofungin was passed through a gel filtration column containing Sephadex G-10 beads. The void volume (containing only the vesicle trapped occidiofungin) was collected and occidiofungin extracted using methanol (50% final concentration). Liquid chromatography was done on the extracted sample, and a standard and the concentration of occidiofungin in the extracted sample was estimated by a comparison of peak volumes.
Occidiofungin in DOPC and DOPC-DPPG, at a concentration of 2.5 mg/kg, with ˜1.25 mg/kg entrapped in vesicles, was administered to six female BALB/c mice respectively via intravenous administration. […] The mice were weighed prior to the start of the experiment and every 24 hours post injection (hpi).
Blood was drawn at time points 1 hpi, 3 hpi, 5 hpi, 7 hpi, 9 hpi, 12 hpi, 18 hpi, 24 hpi and 48 hpi. 15 μl of blood was drawn from the lateral saphenous vein of each mouse for the first three time points. Blood from three mice were pooled together and added to 5 μl of 6.4% citric acid to prevent coagulation. From the fourth time point, blood was drawn from the tail vein of the mice. Blood samples were spun down at 13000 rpm for 10 minutes to separate the plasma. The plasma and the blood pellet obtained were stored separately at −20° C. until analysis. The plasma samples were thawed and the occidiofungin was extracted using a final concentration of 50% methanol. The protein precipitate was spun down at 13000 rpm for 10 minutes and the supernatant was used for analysis. Liquid chromatography was done using Acclaim 120 C18 columns (Length: 150 mm; I.D: 2.1 mm; 5 μm) to purify the occidiofungin in the sample. The occidiofungin was then subjected to MS/MS. Fragmentation of the occidiofungin (parent mass 1200 and 1216 Da) was carried out and the fragment of 1068 and 1084 Da m/z, which corresponds to the occidiofungin molecule (A and B forms, respectively) without the xylose sugar, was used for quantification of occidiofungin. A calibration curve constructed using standard concentrations of occidiofungin in plasma was used to analyze the samples obtained from the mice for pharmacokinetics (See FIGS. 6A-6B & 7A-7B).

[2] = tested on: normal cells with lower metobolism; settings: cited from earlier work
[3] = In vitro toxicity screening (CellTiter-Blue cell viability, 48 hours); format: cell-based, human; settings: human
Text: Cancer cell lines, OVCAR8 (Center for Cancer Research (OVAR.8; Sample ID 25)), SW1088 (ATCC-HTB-12), and Toledo (ATCC CRL-2631), and normal human neonatal dermal fibroblasts cell line (ATCC-PCS-201-010) were passaged and prepped as previously described (See References 15-17). OVCAR8, SW1088, and Toledo2631 are ovarian, brain, and B-cell lymphoma cancer cell lines, respectively. This panel of cell lines was chosen based, in part, on their being from very different cancer types in order to discern whether occidiofungin would have a broad spectrum activity towards cancer cell lines of vastly different parental organ/cell types. OVCAR8 cells are widely used in the field of cancer therapeutic research as a panel representative of ovarian cancer in screening experiments for identifying both ovarian-specific and non-specific (i.e., anti-neoplastic activity on multiple cancer cell types) therapeutic agents (See References 28-30). Similarly, SW1088 cells are widely used in the field of cancer therapeutic research as a panel representative of glioma (the most common brain cancer) in screening experiments for identifying both glioma-specific and non-specific therapeutic agents (See References 31-32). Toledo 2631 cells are derived from lymphoma cells, and are used in the field of cancer therapeutic research for identifying lymphoma-specific and non-specific therapeutic agents (See, e.g., Reference 33). […] Cell counts per plate were calculated to be approximately 50,000 cells/mL. A 10× stock solution of occidiofungin was prepared at 65 μM concentration in 10% dimethyl sulfoxide (DMSO). Two-fold serial dilutions on a 96 well plate were set up in triplicate with starting concentration of 6.5 μM and a final concentration of 3 nM. Bortezomib was used as a comparator for toxicity against human fibroblast and was serially diluted two-fold starting at a concentration of 5 μM and ending at 2.5 nM. Bortezomib is used clinically against myeloma and lymphoma cancers in patients refractory against other chemotherapeutics (See References 18, 19). Furthermore, bortezomib has shown efficacy against a variety of solid tumors and cancer cell lines, making this an appropriate comparison molecule in the panel of cell lines chosen (See References 34-35). The plates were then incubated at 37° C. in 5% CO2 for 48 hours. After 48 hours, cell viability was monitored using CellTiter-Blue (Promega) cell viability assay by measuring the fluorescence emission of a redox activated dye (579EX/584EM) using a POLARstar Omega microplate reader (BMG Labtech).

half-life ([1]; mouse, in vivo, iv, 2.5 mg/kg): 14.6 h | ke1 ([1]; mouse, in vivo, iv, 2.5 mg/kg): 0.0474 h⁻¹
Compound: CCCCCCCCCCCC(OC1OCC(O)C(O)C1O)C(O)C(O)CC1CC(=O)NC(CO)C(=O)NC(C(O)c2ccc(O)cc2)C(=O)NC(CCN)C(=O)NCC(=O)NC(CC(N)=O)C(=O)NC(CO)C(=O)NC(CC(N)=O)C(=O)N1 (stereo not drawn) [OCFIN-A] (S[ξTyr(βOH)][Dab]GNSN; linker N-C via X1; configuration not given here)

Compound: CC(C)C[C@H](NC(=O)[C@H](Cc1ccccc1)NC(=O)c1cnccn1)B(O)O [Bortezomib, bortezomib, reference compound]
toxicity in normal cells [2]: micromolar range | CC50 at 48 h [3]: 4.09 µM

Compound: CCCCCCCCCCCC(OC1OCC(O)C(O)C1O)C(O)C(O)CC1CC(=O)NC(CO)C(=O)NC(C(O)c2ccc(O)cc2)C(=O)NC(CCN)C(=O)NCC(=O)NC(CC(N)=O)C(=O)NC(CO)C(=O)NC(C(O)C(N)=O)C(=O)N1 (stereo not drawn) [OCFIN-B] (S[ξTyr(βOH)][Dab]GNS[ξAsn(3ξ-OH)]; linker N-C via X1; configuration not given here)
half-life ([1]; mouse, in vivo, iv, packaged in DOPC:DPPG (90:10) vesicles, 2.5 mg/kg i.v., mice, read-out: t½ (converted)): 14.8 h | ke1 ([1]; packaged in DOPC:DPPG (90:10) vesicles, 2.5 mg/kg i.v., mice): 0.0467 h⁻¹
